Experimental data: patent publication US9839618B2, “Compositions and methods relating to proliferative diseases” (The Penn State Research Foundation, priority 2010, dated 2017)
“Also recorded” adds a separate entry of the source.

How the values were obtained:
[1] = tested on: Fibrosarcoma (HT-1080) cancer cell line; assay: MTS assay viability IC50, HT-1080; assay type: cell-based; settings: Homo sapiens, Table 5, read-out: IC50 Fibro Sarcoma (HT-1080)
Description: Dehydroabietylamine, its N-substituted derivatives and the corresponding dihydroabietylamine and its N-substituted derivatives are tested for their capability to inhibit cell growth of cancer cell lines, including melanoma (UACC 903, 1205Lu), breast (MCF-7), fibrosarcoma (HT-1080), colon (Caco-2), and prostate (PC-3) cancer cell lines. Viability and IC50 of normal human fibroblasts and cell lines from melanoma and other malignancies following treatment with all the agents are measured using the MTS assay (Promega, Madison, Wis.). Human fibroblast FF2441 cells, metastatic melanoma cell lines 1205 Lu and UACC 903 as well as cancer cell lines representing sarcoma (HT-1080), prostate (PC-3, LNCaP), breast (MCF-7) and lung (A-549) are maintained in DMEM (Invitrogen, Carlsbad, Calif.) supplemented with 10% FBS (Hyclone, Logan, Utah) in a 5% CO2 atmosphere, humidified 37° C. incubator. 5×10^3 cells per well in 100 μL of media are plated and grown in a 96-well plate for 48 to 72 h and treated with either DMSO vehicle control or 0.62 to 40 μmol/L for 24, 48 or 72 h. IC50 values for each compound in […] for respective cell lines are measured from three independent experiments using GraphPad Prism version 4.01 (GraphPad Software, La Jolla, Calif.). FIG. 52 is a graph showing IC50 values for leelamine and compounds 4a, 4b and 5a in treated fibroblasts (FF2441) compared to melanoma cells. Selectivity ratio here is defined as ratio of activity against fibroblasts compared to activity against melanoma cells. Leelamine is relatively selective with a ratio of >6 and >4 for UACC903 and 1205Lu melanoma cells. The selectivity ratio of compound 4a is ˜4 and ˜3 for UACC903 and 1205Lu and for compound 4b is ˜4 for both cell lines. The selectivity ratio of compound 5a is ˜4 for UACC903 and >2 for 1205Lu cells.

[2] = tested on: PI3K/Akt signaling pathway; assay: Western blot, PI3K/Akt pathway; assay type: cell-based, human; settings: for PI3K/AKT pathway (pAKT, pPRAS40, cyclin D1): Example 8, 24 hours, actives 3-5 μmol/L, inactives 30-50 μmol/L
Description: (§1) For Western blot analysis, cell lysates are harvested by addition of RIPA lysis buffers containing 25 mM Tris.HCl pH 7.6, 150 mM NaCl, 1% NP-40, 1% sodium deoxycholate, 0.1% SDS, 10 mM EDTA, 1 mM sodium orthovanadate, 0.1 mM sodium molybdate, 1 mM phenylmethylsulfonyl fluoride, 20 μg/mL aprotinin, and 5 μg/mL leupeptin. The cell lysates are harvested and processed as described in Madhunapantula, S. V. et al., Cancer Res, 2007, 67:3626-36. Treatment conditions: 1-1.5×10^6 melanoma cells are plated in 100 mm culture dishes, 48 h later, treated with leelamine (3-6 μmol/L) for 3 to 24 hours. Protein lysates are collected for Western blotting. The blots are probed with antibodies according to each supplier's recommendations: antibodies to total Akt, phospho-Akt (Ser473), total PRAS40, phospho-PRAS40 (Thr246), total CREB, phospho-CREB (Ser133), phospho-p70 S6 kinase (Thr389), total Erk1/2, phospho-Erk1/2 (Thr202/Tyr 204), total CDK2, phospho-CDK2 (Thr160), phospho-Rb (Ser807/811), total Stat, phospho-Stat1 (Tyr701), Phospho-Stat-2(Tyr690), Phospho-Stat3(Ser727), phospho-Stat3(Tyr705) and cleaved PARP from Cell Signaling Technology (Danvers, Mass.); total PRAS40 from Invitrogen (Carlsbad, Calif.); cyclin D1, Bcl-2, α-enolase and secondary antibodies conjugated with horseradish peroxidase from Santa Cruz Biotechnology (Santa Cruz, Calif.). Immunoblots are developed using the enhanced chemiluminescence (ECL) detection system (Thermo Fisher Scientific, Rockford, Ill.). Intensity of protein bands is quantified using ImageJ software.
(§2) For Western blot analysis, 1×10^6 melanoma cells are plated in 100 mm culture dishes, 48 hours later, treated with empty liposomes or Nanolipolee-007 (3-6 μmol/L) for 3 to 24 hours. Protein lysates collected for Western blotting. The cell lysates are harvested in an RIPA lysis buffer containing protease and phosphatases inhibitors (Pierce Biotechnology, Rockford, Ill.). Blots are probed with antibodies according to each supplier's recommendations: antibodies to total Akt, phospho-Akt (Ser473), total PRAS40, phospho-PRAS40 (Thr246), total Bad, pBad (Ser 112) total Erk1/2, phospho-Erk1/2 (Thr202/Tyr 204), total CDK2, phospho-CDK2 (Thr160), phospho-Rb (Ser807/811), total Stat, phospho-Stat3 (Tyr705), caspase-3 and cleaved PARP from Cell Signaling Technology (Danvers, Mass.); total PRAS40 from Invitrogen (Carlsbad, Calif.); cyclin D1, α-enolase and secondary antibodies conjugated with horseradish peroxidase from Santa Cruz Biotechnology (Santa Cruz, Calif.). Immunoblots are developed using the enhanced chemiluminescence (ECL) detection system (Thermo Fisher Scientific, Rockford, Ill.). Intensity of protein bands is quantified using ImageJ software.
(§3) Cell lysates are harvested by addition of RIPA lysis buffers containing 25 mM Tris*HCl pH 7.6, 150 mM NaCl, 1% NP-40, 1% sodium deoxycholate, 0.1% SDS, 10 mM EDTA, 1 mM sodium orthovanadate, 0.1 mM sodium molybdate, 1 mM phenylmethylsulfonyl fluoride, 20 μg/mL aprotinin, and 5 μg/mL leupeptin. The cell lysates are harvested and processed as described. […] Protein lysates collected for Western blotting. […] Intensity of protein bands is quantified using ImageJ software. […]

[3] = tested on: MAPK signaling pathway; assay: Western blot, MAPK pathway; assay type: cell-based, human; settings: for MAPK pathway (pERK1/2, pCDK2): Example 8, 24 hours, actives 3-5 μmol/L, inactives 30-50 μmol/L
Description: as §1, §2, §3

[4] = 3 to 6 μmol/L for 3 to 24 hours, UACC 903 and 1205 Lu

| IC50 [1] [µM] | Compound | PI3K/AKT pathway (pAKT, pPRAS40, cyclin D1) [2] | MAPK pathway (pERK1/2, pCDK2) [3] | PI3 kinase pathway signaling [2, 4] | MAP kinase pathway signaling [3, 4] |
| --- | --- | --- | --- | --- | --- |
| > 100 | CC(C)C1=CC2=CCC3[C@](C)(CCC[C@@]3(C)C(=O)O)C2CC1 (stereo partly drawn) [Abietic acid, (1R,4aR)-1,4a-dimethyl-7-(propan-2-yl)-1,2,3,4,4a,4b,5,6,10,10a-decahydrophenanthrene-1-carboxylic acid, reference compound] | unable to affect | unable to affect | – | – |
| 6.29 ± 1.1 | CC(C)C1=CC2=CCC3[C@](C)(CN)CCC[C@]3(C)C2CC1 (stereo partly drawn) [Compound 4a, {[(1R,4aR)-1,4a-dimethyl-7-(propan-2-yl)-1,2,3,4,4a,4b,5,6,10,10a-decahydrophenanthren-1-yl]methyl}amine] | decrease pAKT, pPRAS40 and cyclin D1 | Dose dependent reduction of pERK1/2 and pCDK2 | – | – |
| 3.73 ± 0.54 | CC(C)c1ccc2c(c1)CCC1[C@](C)(CNC(=O)C(F)(F)F)CCC[C@]21C (stereo partly drawn) [Compound 5a, N-{[(1R,4aS)-1,4a-dimethyl-7-(propan-2-yl)-1,2,3,4,4a,9,10,10a-octahydrophenanthren-1-yl]methyl}-2,2,2-trifluoroacetamide] | decrease pAKT, pPRAS40 and cyclin D1 | Dose dependent reduction of pERK1/2 and pCDK2 | – | – |
| 3.75 ± 0.54 | CC(C)c1ccc2c(c1)CCC1[C@](C)(CN)CCC[C@]21C (stereo partly drawn) [Leelamine, [(1R,4aS)-1,4a-dimethyl-7-(propan-2-yl)-1,2,3,4,4a,9,10,10a-octahydrophenanthren-1-yl]methanamine] | highly effective in abolishing activation of AKT pathway; also recorded: decrease pAKT, pPRAS40 and cyclin D1 | blocks activation of ERK1/2; also recorded: Dose dependent reduction of pERK1/2 and pCDK2 | decrease activity | decrease activity |
